Data as given in patent publication US20110184004A1, “PREDICTIVE MARKER FOR EGFR INHIBITOR TREATMENT” (priority 2007, published 2011).
Entries after “also recorded” stand apart in the source; their conditions may differ.

Tests used:
[1] = patients with cancer, 150 mg/day dose; 500 ng/ml is the average plasma concentration targeted for clinical efficacy; cited from earlier work
[2] = tested on: NSCLC; conditions: NSCLC patients for whom standard therapy for advanced disease has failed; single agent versus placebo; 150 mg/day; cited from earlier work
[3] = tested on: epithelial tumours; conditions: cited from earlier work
[4] = tested on: advanced NSCLC; test: Open-label Phase II predictive marker study of Tarceva monotherapy, response by RECIST; type: in vivo, human; conditions: 102 analysed patients, oral 150 mg/day
Protocol: Clinical benefit was defined as either having an objective response, or disease stabilization for ≧12 weeks.
Based on the experience from the BR.21 study, benefiting population was defined as either having objective response, or disease stabilization for 12 weeks. Clinical and microarray datasets were analyzed according to a pre-defined statistical plan.
Overview of Study Design and Dosing Regimen This was an open-label, predictive marker identification Phase II study. The study was conducted in approximately 26 sites in about 12 countries. 264 patients with advanced NSCLC following failure of at least one prior chemotherapy regimen were enrolled over a 12 month period. […] Dose reductions were permitted based on tolerability to drug therapy. Clinical and laboratory parameters were assessed to evaluate disease control and toxicity. Treatment continued until disease progression, unacceptable toxicity or death. The study design is depicted in FIG. 1.
The RECIST (Uni-dimensional Tumour Measurement) criteria were used to evaluate response. These criteria can be found under the following link: http://www.eortc.be/recist/
Note that: To be assigned a status of CR or PR, changes in tumour measurements must be confirmed by repeated assessments at least 4 weeks apart at any time during the treatment period.
In the case of SD, follow-up measurements must have met the SD criteria at least once after study entry at a minimum interval of 6 weeks.
In the case of maintained SD, follow-up measurements must have met the SD criteria at least once after study entry with maintenance duration of at least 12 weeks.
Based on these parameters, data from 20 arrays were excluded from analysis. Thus data from a total of 102 arrays representing 102 patients was included in the analysis.

[5] = tested on: NSCLC; conditions: cited from earlier work
[6] = tested on: NSCLC; conditions: second line therapy of NSCLC; cited from earlier work
[7] = advanced NSCLC after failure of at least one chemotherapy, RECIST
[8] = clinical benefit = objective response or disease stabilization for ≧12 weeks

## C#Cc1cccc(Nc2ncnc3cc(OCCOC)c(OCCOC)cc23)c1 [Tarceva, erlotinib]
[1]
  Drug levels in plasma: > 500 ng/mL
[2]
  Survival: significantly prolongs and improves the survival; also recorded: survival benefit
[3]; early clinical data, doses that provide the targeted effective concentration
  Safety and tolerability: safe and generally well tolerated
[3]; previously treated patients with head and neck cancer and NSCLC
  Clinical activity (remissions): capable of inducing durable partial remissions
[4]; [7]
  Best Response PD: 49 (48.0%) n (%)
  Best Response PR: 6 (5.9%) n (%)
  Best Response SD: 31 (30.4%) n (%)
[4]; [8]
  Clinical Benefit NO: 81 (79.4%) n (%)
  Clinical Benefit YES: 21 (20.6%) n (%)

## CC(=O)O[C@@]12CO[C@@H]1C[C@H](O)[C@@]1(C)C(=O)[C@H](O)C3=C(C)[C@@H](OC(=O)[C@H](O)[C@@H](NC(=O)OC(C)(C)C)c4ccccc4)C[C@@](O)([C@@H](OC(=O)c4ccccc4)[C@H]21)C3(C)C [docetaxel]
[5]; NSCLC after failure of cisplatin-based first-line regimens, all ages, ECOG performance status 0, 1 or 2, versus best supportive care
  Survival, second line: improved survival
[5]; patients receiving docetaxel as third-line treatment or beyond
  Survival, third-line treatment or beyond: no prolongation of survival

## Nc1nc2[nH]cc(CCc3ccc(C(=O)N[C@@H](CCC(=O)O)C(=O)O)cc3)c2c(=O)[nH]1 [pemetrexed]
[6]
  Efficacy compared with docetaxel: clinically equivalent efficacy
  Side effects compared with docetaxel: significantly fewer side effects
